What all share (assay type): in vivo
In experiment [1] the test system is giant foxtail (Setaria faberii). The experiment in a line: Test A preemergence. As to conditions: Setaria faberi, pre-emergence, 240 h, preemergence, read-out: Plant response rating, Foxtail, Giant; for pest or weed control at 125 g/ha: 125 g ai/ha, visual rating after approx. 10 d, 0 to 100 scale where 0 is no effect and 100 is complete control; for pest or weed control at 500 g/ha: 500 g ai/ha, 0 to 100 scale, 0 = no effect, 100 = complete control. In short, it runs like this: (§1)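 Preemergence directed soil spray on seeded pots, or postemergence application to plants 2–10 cm, one- to two-leaf. Solvent mixture non-phytotoxic, with surfactant. Scored ~10 d later, visually, 0–100 vs untreated.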

The test system of experiment [2] is ragweed (common ragweed, Ambrosia elatior). The experiment in a line: Test A preemergence. The conditions noted are these: Ambrosia artemisiifolia, pre-emergence, 240 h, preemergence, read-out: Plant response rating, Ragweed; for pest or weed control at 125 g/ha: 125 g ai/ha, visual rating after approx. 10 d, 0 to 100 scale where 0 is no effect and 100 is complete control; for pest or weed control at 500 g/ha: 500 g ai/ha, 0 to 100 scale, 0 = no effect, 100 = complete control. In short, it runs like this:
as §1

Experiment [3] relates to pigweed (Amaranthus retroflexus). The experiment in a line: Test A preemergence. As to conditions: Amaranthus retroflexus, pre-emergence, 240 h, preemergence, read-out: Plant response rating, Pigweed; for pest or weed control at 125 g/ha: 125 g ai/ha, visual rating after approx. 10 d, 0 to 100 scale where 0 is no effect and 100 is complete control; for pest or weed control at 500 g/ha: 500 g ai/ha, 0 to 100 scale, 0 = no effect, 100 = complete control.

Experiment [4] has as its system Kochia (Kochia scoparia). The experiment in a line: Test A preemergence. As to conditions: Bassia scoparia, pre-emergence, 240 h, preemergence, read-out: Plant response rating, Kochia; for pest or weed control at 125 g/ha: 125 g ai/ha, visual rating after approx. 10 d, 0 to 100 scale where 0 is no effect and 100 is complete control; for pest or weed control at 500 g/ha: 500 g ai/ha, 0 to 100 scale, 0 = no effect, 100 = complete control. In short, it runs like this: as §1

The subject of experiment [5] is barnyardgrass (Echinochloa crus-galli). The experiment in a line: Test A preemergence. The conditions noted are these: Echinochloa crus-galli, pre-emergence, 240 h, preemergence, read-out: Plant response rating, Barnyardgrass; for pest or weed control at 125 g/ha: 125 g ai/ha, visual rating after approx. 10 d, 0 to 100 scale where 0 is no effect and 100 is complete control; for pest or weed control at 500 g/ha: 500 g ai/ha, 0 to 100 scale, 0 = no effect, 100 = complete control. In short, it runs like this: as §1

The subject of experiment [6] is ryegrass, Italian (Italian ryegrass, Lolium multiflorum). Nature of the experiment: Test A preemergence. The conditions noted are these: Lolium multiflorum, pre-emergence, 240 h, preemergence, read-out: Plant response rating, Ryegrass, Italian; for pest or weed control at 125 g/ha: 125 g ai/ha, visual rating after approx. 10 d, 0 to 100 scale where 0 is no effect and 100 is complete control; for pest or weed control at 500 g/ha: 500 g ai/ha, 0 to 100 scale, 0 = no effect, 100 = complete control. In short, it runs like this: as §1

For experiment [7], the system named is giant foxtail (Setaria faberii). The experiment in a line: Test A postemergence. The conditions noted are these: Setaria faberi, post-emergence, 240 h, 125 g ai/ha, postemergence; visual injury after approximately 10 d; 0 to 100 scale (0 no effect, 100 complete control); read-out: Plant response rating, Foxtail, Giant. In short, it runs like this: as §1
Experiment [8] relates to Galium (catchweed bedstraw, Galium aparine). Nature of the experiment: Test A postemergence. The conditions noted are these: Galium, post-emergence, 240 h, 125 g ai/ha, postemergence; visual injury after approximately 10 d; 0 to 100 scale (0 no effect, 100 complete control); read-out: Plant response rating, Galium. In short, it runs like this:
as §1

The subject of experiment [9] is ragweed (common ragweed, Ambrosia elatior). The experiment in a line: Test A postemergence. The conditions noted are these: Ambrosia artemisiifolia, post-emergence, 240 h, 125 g ai/ha, postemergence; visual injury after approximately 10 d; 0 to 100 scale (0 no effect, 100 complete control); read-out: Plant response rating, Ragweed. In short, it runs like this:
as §1

Experiment [10] deals with pigweed (Amaranthus retroflexus). The experiment in a line: Test A postemergence. As to conditions: Amaranthus retroflexus, post-emergence, 240 h, 125 g ai/ha, postemergence; visual injury after approximately 10 d; 0 to 100 scale (0 no effect, 100 complete control); read-out: Plant response rating, Pigweed. In short, it runs like this:
as §1

For experiment [11], the system named is blackgrass (Alopecurus myosuroides). The experiment in a line: Test A postemergence. As to conditions: Alopecurus myosuroides, post-emergence, 240 h, 125 g ai/ha, postemergence; visual injury after approximately 10 d; 0 to 100 scale (0 no effect, 100 complete control); read-out: Plant response rating, Blackgrass. In short, it runs like this:
as §1

The subject of experiment [12] is Kochia (Kochia scoparia). The experiment in a line: Test A postemergence. The conditions noted are these: Bassia scoparia, post-emergence, 240 h, 125 g ai/ha, postemergence; visual injury after approximately 10 d; 0 to 100 scale (0 no effect, 100 complete control); read-out: Plant response rating, Kochia. In short, it runs like this:
as §1

Experiment [13] relates to barnyardgrass (Echinochloa crus-galli). The experiment in a line: Test A postemergence. The conditions noted are these: Echinochloa crus-galli, post-emergence, 240 h, 125 g ai/ha, postemergence; visual injury after approximately 10 d; 0 to 100 scale (0 no effect, 100 complete control); read-out: Plant response rating, Barnyardgrass. In short, it runs like this: as §1
The next experiment deals with corn (Zea mays). The experiment in a line: Test A postemergence. The conditions noted are these: Zea mays, post-emergence, 240 h, 125 g ai/ha, postemergence; visual injury after approximately 10 d; 0 to 100 scale (0 no effect, 100 complete control). In short, it runs like this: as §1
In experiment [14] the test system is ryegrass, Italian (Italian ryegrass, Lolium multiflorum). Nature of the experiment: Test A postemergence. As to conditions: Lolium multiflorum, post-emergence, 240 h, 125 g ai/ha, postemergence; visual injury after approximately 10 d; 0 to 100 scale (0 no effect, 100 complete control); read-out: Plant response rating, Ryegrass, Italian. In short, it runs like this:
as §1

The structures appear in SMILES notation.

With `COc1ccc([C@H]2CNC(=O)[C@@H]2C(=O)Nc2ccccc2S(C)(=O)=O)cc1F` [Compound 721], the pest or weed control at 125 g/ha worked out at 30% in experiment [1]; 0% in experiment [2]; 0% in [3]; 0% in the experiment on Kochia (Kochia scoparia) [4]; 30% in experiment [5]; 0% in experiment [6]. Besides, the pest or weed control at 125 g/ha was 0% in [7]; 20% in experiment [8]; 0% in experiment [9]; 0% in [10]; 0% in experiment [11]; 0% with Kochia (Kochia scoparia) [12]. In addition, the results for the pest or weed control at 125 g/ha in experiment [13] and in experiment [14] were 10% and 0%, respectively. Also, the pest or weed control at 500 g/ha in experiment [1] was determined as 90%; in experiment [2], 50%; in [3], 0%; in the experiment with Kochia (Kochia scoparia) [4] it was 0%; in experiment [5], 80%; in experiment [6], 20%. Besides, the Corn plant response rating (crop injury, 0 = no effect, 100 = complete kill) at 125 g/ha with corn (Zea mays) is 0%.

As for `O=C1NC[C@H](c2ccc(C3CC3)cc2)[C@H]1C(=O)Nc1ccccc1F` [Compound 727], the pest or weed control at 125 g/ha in experiment [1] came out at 80%; in [2], 0%; in experiment [3], 0%; in the experiment with Kochia (Kochia scoparia) [4], 0%; in experiment [5], 70%; in experiment [6] it was 0%. Also, the pest or weed control at 125 g/ha worked out at 40% in [7]; 0% in experiment [8]; 0% in [9]; 0% in [10]; 30% in [11]; 0% with Kochia (Kochia scoparia) [12]. Further, the pest or weed control at 125 g/ha is 80% in experiment [13] and 0% in [14]. The pest or weed control at 500 g/ha worked out at 90% in experiment [1]; 0% in experiment [2]; 0% in experiment [3]; 0% in the experiment on Kochia (Kochia scoparia) [4]; 90% in experiment [5]; 0% in experiment [6]. In the experiment on corn (Zea mays), the Corn plant response rating (crop injury, 0 = no effect, 100 = complete kill) at 125 g/ha was 0%.

With `Cc1ccc([C@H]2CN(C)C(=O)[C@@H]2C(=O)Nc2cccc(F)c2F)c(F)c1` [Compound 730], the pest or weed control at 125 g/ha came out at 90% in experiment [1]; 50% in experiment [2]; 30% in experiment [3]; 70% in the experiment with Kochia (Kochia scoparia) [4]; 90% in experiment [5]; 20% in experiment [6]. Moreover, the pest or weed control at 125 g/ha came out at 90% in experiment [7]; 50% in experiment [8]; 20% in experiment [9]; 20% in experiment [10]; 50% in experiment [11]; 70% in the experiment with Kochia (Kochia scoparia) [12]. The pest or weed control at 125 g/ha in experiment [13] is 100%; in [14], 40%. The pest or weed control at 500 g/ha is 100% in experiment [1]; 60% in [2]; 50% in experiment [3]; 80% with Kochia (Kochia scoparia) [4]; 100% in experiment [5]; 70% in experiment [6]. Further, the Corn plant response rating (crop injury, 0 = no effect, 100 = complete kill) at 125 g/ha in the experiment with corn (Zea mays) came to 20%.

Turning to `Cc1ccc([C@H]2CN(C)C(=O)[C@@H]2C(=O)Nc2ccccc2S(C)(=O)=O)cc1C` [Compound 734], the pest or weed control at 125 g/ha in experiment [1] came to 90%; in [2], 20%; in experiment [3] it was 20%; in the experiment with Kochia (Kochia scoparia) [4], 20%; in [5] it was 90%; in experiment [6] it was 40%. In addition, the pest or weed control at 125 g/ha in experiment [7] was determined as 90%; in experiment [8], 30%; in experiment [9], 10%; in [10] it was 0%; in experiment [11], 20%; in the experiment on Kochia (Kochia scoparia) [12] it was 0%. In addition, the pest or weed control at 125 g/ha in experiment [13] came out at 90%; in experiment [14] it was 20%. Also, the pest or weed control at 500 g/ha stood at 100% in experiment [1]; 50% in experiment [2]; 80% in [3]; 90% with Kochia (Kochia scoparia) [4]; 100% in experiment [5]; 90% in experiment [6]. Further, the Corn plant response rating (crop injury, 0 = no effect, 100 = complete kill) at 125 g/ha in the experiment with corn (Zea mays) stood at 40%.

Take `CCc1cc(CC)cc([C@H]2CN(C)C(=O)[C@@H]2C(=O)Nc2ccccc2F)c1` [Compound 735]: the pest or weed control at 125 g/ha in experiment [1] came out at 90%; in experiment [2] it was 0%; in experiment [3], 0%; in the experiment with Kochia (Kochia scoparia) [4], 20%; in experiment [5], 90%; in [6], 80%. Further, the pest or weed control at 125 g/ha in [7] came to 90%; in experiment [8] it was 40%; in experiment [9], 0%; in experiment [10], 20%; in experiment [11] it was 50%; with Kochia (Kochia scoparia) [12], 30%. The pest or weed control at 125 g/ha in experiment [13] stood at 90%; in [14] it was 60%. Further, the pest or weed control at 500 g/ha in experiment [1] stood at 90%; in experiment [2], 0%; in experiment [3], 20%; in the experiment with Kochia (Kochia scoparia) [4] it was 80%; in [5], 90%; in [6], 90%. In the experiment with corn (Zea mays), this compound registered a Corn plant response rating (crop injury, 0 = no effect, 100 = complete kill) at 125 g/ha of 80%.

These data come from patent US12077503B2, “Substituted cyclic amides and their use as herbicides” (FMC CORPORATION, priority 2015, dated 2024).
